Several values for one entry are separate records, joined by “and”; a condition that tells them apart may be missing. Equal entries are not always repeated. Where two headings read alike, the source gives them in different places.
Legend:
[1] = test system: Mycosphaerella graminicola; Anamorph: Septoria tritici; Bayer Code SEPTTR; assay: Leaf blotch of wheat, foliar fungicide treatment, one day protectant (1DP) or three day curative (3DC); format: in vivo, Septoria tritici on wheat plants (variety Yuma); settings: Zymoseptoria tritici
[2] = test system: Cercospora beticola; Bayer Code CERCBE; assay: Leaf spot of sugar beets; format: in vivo, Cercospora beticola on sugar beets (variety HH-88); settings: 24 h, % disease control rating, one day protectant; for pest or weed control at 25 ppm: read-out: CERCBE 1 DP 25 ppm; for pest or weed control at 75 ppm: read-out: CERCBE 1 DP 75 ppm
[3] = test system: Venturia inaequalis; Bayer Code VENTIN; assay: Apple scab; format: in vivo; settings: 24 h, % disease control rating, one day protectant; for pest or weed control at 25 ppm: read-out: VENTIN 1 DP 25 ppm; for pest or weed control at 75 ppm: read-out: VENTIN 1 DP 75 ppm
[4] = test system: Mycosphaerella fijiensis; BAYER Code MYCOFI; assay: Black Sigatoka disease of banana; format: in vivo, Mycosphaerella fijiensis on field grown banana plants; settings: % disease control rating, banana leaves, natural inoculum
Protocol: 5. Evaluation of Fungicidal Activity: Black Sigatoka Disease of Banana (Mycosphaerella fijiensis; BAYER Code MYCOFI): […] The leaves were subsequently allowed to become infected by natural inoculum, and were visually assessed for percent disease control ˜40-45 days later. The following tables present the activity of typical compounds of the present disclosure when evaluated in these experiments. The effectiveness of the test compounds in controlling disease was determined by assessing the severity of disease on treated plants, then converting the severity to percent control based on the level of disease on untreated, inoculated plants. In each case of Tables I-V the rating scale is as follows: […]

[5] = test system: Mycosphaerella graminicola; Anamorph: Septoria tritici; Bayer Code SEPTTR; assay: Fungicidal activity as a seed treatment: leaf blotch of wheat; format: in vivo, Septoria tritici on wheat variety Yuma; settings: for % Control (SEPTTR, seed treatment): 10% SC formulation; for Pot 1 to Pot 8 values (SEPTTR disease severity on treated plants): single pots, 8 replicates
Source text: 6. Evaluation of Fungicidal Activity as a Seed Treatment: Leaf Blotch of Wheat (Mycosphaerella graminicola; Anamorph: Septoria tritici; Bayer Code […]) […] Seeds (10 seeds/pot) were planted in 1 inch pot containing 50% mineral soil/50% soil-less Metro mix. 8-day old seedlings were inoculated with an aqueous spore suspension of Septoria tritici, and 8 pots of plants were inoculated for each fungicide rate. After inoculation, plants were kept in 100% relative humidity (one day in a dark dew chamber followed by two days in a lighted mist room) to allow establishment of infection. The plants were then transferred to a greenhouse for disease to develop. When infection levels on untreated plants reached 95 to 100%, disease severities on treated plants were assessed. […] The following tables present the activity of typical compounds of the present disclosure when evaluated in these experiments. The effectiveness of the test compounds in controlling disease was determined by assessing the severity of disease on treated plants, then converting the severity to percent control based on the level of disease on untreated, inoculated plants. In each case of Tables I-V the rating scale is as follows: […]

[6] = 24 h, one day protectant (1DP), percent disease control rating, read-out: SETTTR 1DP 25 ppm
[7] = 24 h, one day protectant (1DP), percent disease control rating, read-out: SEPTTR 1DP 100 ppm
[8] = 72 h, three day curative (3DC), percent disease control rating, read-out: SEPTTR 3DC 25 ppm
[9] = 72 h, three day curative (3DC), percent disease control rating, read-out: SEPTTR 3DC 100 ppm
[10] = 24 h, one day protectant (1DP), rating of percent disease control, read-out: SETTTR 1DP 25 ppm
[11] = 24 h, one day protectant (1DP), rating of percent disease control, read-out: SEPTTR 1DP 100 ppm
[12] = 72 h, three day curative (3DC), rating of percent disease control, read-out: SEPTTR 3DC 25 ppm
[13] = 72 h, three day curative (3DC), rating of percent disease control, read-out: SEPTTR 3DC 100 ppm
[14] = 24 h, one day protectant, rating of percent disease control, read-out: SETTTR 1DP 25 ppm
[15] = 24 h, one day protectant, rating of percent disease control, read-out: SEPTTR 1DP 100 ppm
[16] = 72 h, three day curative, rating of percent disease control, read-out: SEPTTR 3DC 25 ppm
[17] = 72 h, three day curative, rating of percent disease control, read-out: SEPTTR 3DC 100 ppm

Compound	pest or weed control at 25 ppm [1, 6] [%]	pest or weed control at 100 ppm [1, 7] [%]	pest or weed control at 25 ppm [1, 8] [%]	pest or weed control at 100 ppm [1, 9] [%]	pest or weed control at 25 ppm [2] [%]	pest or weed control at 75 ppm [2] [%]	pest or weed control at 25 ppm [3] [%]	pest or weed control at 75 ppm [3] [%]	pest or weed control at 25 ppm [1, 10] [%]	pest or weed control at 100 ppm [1, 11] [%]	pest or weed control at 25 ppm [1, 12] [%]	pest or weed control at 100 ppm [1, 13] [%]	further results
Nc1nc(OCc2ccc(F)cc2)ncc1F [Compound 1, 5-Fluoro-2-(4-fluorobenzyloxy)pyrimidin-4-amine]	76 to 100	76 to 100	76 to 100	76 to 100	26 to 50	26 to 50	76 to 100	76 to 100	–	–	–	–	MYCOFI 1 DP 50 ppm ([4]; 50 ppm): C (26-50); MYCOFI 1 DP 200 ppm ([4]; 200 ppm): B (51-75)
Cc1ccc(COc2ncc(F)c(N)n2)cc1 [Compound 15]	76 to 100	76 to 100	76 to 100	76 to 100	–	–	76 to 100	76 to 100	–	–	–	–	control of SEPTTR via seed treatment (in words) ([5]; lowest test rate of 1.48 g ai/100 kg seeds): nearly complete control; % Control (SEPTTR, seed treatment) ([5]; rate 1.48 g/100 kg seeds): A (76-100); Pot 1 to Pot 8 values (SEPTTR disease severity on treated plants) ([5]; rate 1.48 g/100 kg seeds): 3% (3×) and 1% (2×) and 0% (3×); % Control (SEPTTR, seed treatment) ([5]; rate 4.44 g/100 kg seeds): A (76-100); Pot 1 to Pot 8 values (SEPTTR disease severity on treated plants) ([5]; rate 4.44 g/100 kg seeds): 0% (5×) and 1% (3×); % Control (SEPTTR, seed treatment) ([5]; rate 13.3 g/100 kg seeds): A (76-100); Pot 1 to Pot 8 values (SEPTTR disease severity on treated plants) ([5]; rate 13.3 g/100 kg seeds): 0% (4×) and 1% (4×); % Control (SEPTTR, seed treatment) ([5]; rate 40 g/100 kg seeds): A (76-100); Pot 1 to Pot 8 values (SEPTTR disease severity on treated plants) ([5]; rate 40 g/100 kg seeds): 0% (5×) and 1% (3×); % Control (SEPTTR, seed treatment) ([5]; rate 120 g/100 kg seeds): A (76-100); Pot 1 to Pot 8 values (SEPTTR disease severity on treated plants) ([5]; rate 120 g/100 kg seeds): 0%
CC/C(=N\c1nc(OCc2ccc(F)cc2)ncc1F)N(C)C [Compound 24, N′-[5-Fluoro-2-(4-fluorobenzyloxy)pyrimidin-4-yl]-N,N-dimethyl-propionamidine]	76 to 100	76 to 100	76 to 100	76 to 100	0 to 25	0 to 25	26 to 50	76 to 100	–	–	–	–	–
CC(Oc1ncc(F)c(/N=C/N(C)C)n1)c1ccc(F)cc1 (centres unmarked) [Compound 483]	–	–	–	–	0 to 25	0 to 25	26 to 50	76 to 100	76 to 100	76 to 100	76 to 100	76 to 100	–
O=C(Nc1nc(OCc2cccc(F)c2)ncc1F)OCc1ccc([N+](=O)[O-])cc1 [Compound 180]	0 to 25	51 to 75	0 to 25	0 to 25	0 to 25	26 to 50	26 to 50	0 to 25	–	–	–	–	–
COc1ccc(Oc2ncc(F)c(/N=C/N(C)C)n2)cc1 [Compound 187]	–	–	–	–	0 to 25	26 to 50	51 to 75	26 to 50	0 to 25	0 to 25	0 to 25	51 to 75	–
Nc1nc(OCc2ccc(Cl)c([N+](=O)[O-])c2)ncc1F [Compound 707]	–	–	–	–	51 to 75	26 to 50	51 to 75	51 to 75	–	–	–	–	pest or weed control at 25 ppm [1, 14]: 76 to 100%; pest or weed control at 100 ppm [1, 15]: 76 to 100%; pest or weed control at 25 ppm [1, 16]: 76 to 100%; pest or weed control at 100 ppm [1, 17]: 76 to 100%
CONc1nc(OCc2ccc(F)cc2)ncc1F [Compound 233]	–	–	–	–	0 to 25	0 to 25	0 to 25	51 to 75	51 to 75	76 to 100	76 to 100	76 to 100	–
Cc1nc(COc2ncc(F)c(N)n2)cs1 [Compound 436]	–	–	–	–	51 to 75	26 to 50	76 to 100	76 to 100	76 to 100	76 to 100	76 to 100	76 to 100	–
CN(C)/C=N/c1nc(OCc2ccn(C)n2)ncc1F [Compound 730]	–	–	–	–	26 to 50	26 to 50	51 to 75	51 to 75	–	–	–	–	pest or weed control at 25 ppm [1, 14]: 76 to 100%; pest or weed control at 100 ppm [1, 15]: 76 to 100%; pest or weed control at 25 ppm [1, 16]: 76 to 100%; pest or weed control at 100 ppm [1, 17]: 76 to 100%
Nc1nc(OC2CCCc3cccnc32)ncc1F (centres unmarked) [Compound 560]	–	–	–	–	0 to 25	26 to 50	0 to 25	76 to 100	–	–	–	–	pest or weed control at 25 ppm [1, 14]: 0 to 25%; pest or weed control at 100 ppm [1, 15]: 26 to 50%; pest or weed control at 25 ppm [1, 16]: 0 to 25%; pest or weed control at 100 ppm [1, 17]: 76 to 100%
Nc1nc(OCc2ccc(-c3ccccn3)s2)ncc1F [Compound 316]	–	–	–	–	51 to 75	76 to 100	76 to 100	76 to 100	76 to 100	76 to 100	76 to 100	76 to 100	–
